From the supplement of paper PMC8960247
Structures can show the parent of a compound that is named as a salt. ± gives the standard error.

Key:
[1] = system: 621-102 (TSC2-deficient); test: relative viability vs DMSO; higher = less cytotoxic; settings: serum: 10% FBS, 72 h
[2] = system: 621-103 (TSC2-rescued); test: as above; settings: serum: 10% FBS, 72 h
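Also: immortalized renal angiomyolipoma cells stably carrying empty vector or TSC2, dosed in 384-well plates in DMEM, viability normalized to vehicle-treated wells within each plate.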

Compound | relative viability ([1]; 0.0001 µM) | relative viability ([1]; 0.001 µM) | relative viability ([1]; 0.01 µM) | relative viability ([1]; 0.1 µM) | relative viability ([1]; 1 µM) | relative viability ([1]; 10 µM) | relative viability ([2]; 0.0001 µM) | relative viability ([2]; 0.001 µM) | relative viability ([2]; 0.01 µM) | relative viability ([2]; 0.1 µM) | relative viability ([2]; 1 µM) | relative viability ([2]; 10 µM)
CC[C@H](Nc1ncnc2[nH]cnc12)c1nc2cccc(F)c2c(=O)n1-c1ccccc1 [CAL-101] | 104.38 ± 0.033% | 117.5 ± 0.72% | 111 ± 5.8% | 106 ± 3% | 104.1 ± 0.72% | 92.41 ± 0.24% | 116 ± 3.1% | 109 ± 3.1% | 114 ± 1.2% | 104 ± 3.4% | 109 ± 2% | 92.7 ± 4.7%
Cc1cc(Nc2nc(N[C@@H](C)c3ncc(F)cn3)ncc2Cl)[nH]n1 [AZD1480] | 104 ± 2.1% | 101.7 ± 0.92% | 104 ± 1.7% | 100.8 ± 0.59% | 103 ± 3.8% | 87.7 ± 1.2% | 97.89 ± 0.31% | 89.6 ± 1.1% | 86.7 ± 3.9% | 92.2 ± 2.8% | 89.4 ± 2.6% | 53.6 ± 1.4%
Fc1cc(-c2cccc3ncc(-c4cnn(C5CCNCC5)c4)nc23)cc(F)c1CN1CCOCC1 [NVP-BSK805 dihydrochloride] | 102 ± 3.5% | 99.9 ± 4% | 101 ± 2.5% | 103 ± 1.4% | 89.2 ± 9.6% | 4.33 ± 1.8% | 88.7 ± 5.9% | 102 ± 1.9% | 111 ± 4.3% | 104 ± 4.5% | 77.1 ± 0.88% | 4.07 ± 1.5%
CCOC(=O)[C@H](CCc1ccccc1)N[C@@H](C)C(=O)N1CCC[C@H]1C(=O)O [Enalapril Maleate] | 103 ± 1.4% | 92.6 ± 3.4% | 101.9 ± 0.59% | 101 ± 3.5% | 105 ± 4.1% | 100.5 ± 0.3% | 99 ± 1.8% | 100 ± 2.9% | 89.7 ± 10% | 100 ± 1.5% | 99.6 ± 0.35% | 103 ± 2.4%
O=C(NC[C@H](O)CO)c1ccncc1Nc1ccc(I)cc1F | 100.3 ± 0.48% | 92 ± 13% | 101 ± 3.2% | 97.01 ± 0.18% | 90.5 ± 2% | 55.7 ± 0.91% | 101.8 ± 0.97% | 104 ± 1.9% | 105 ± 1.4% | 103.5 ± 0.29% | 99.919 ± 0.052% | 78.4 ± 1.2%
N#CC1(c2ccc(NC(=O)c3cccnc3NCc3ccncc3)cc2)CCCC1 [Apatinib] | 101 ± 3.1% | 109.9 ± 0.77% | 111.8 ± 0.42% | 111 ± 4.4% | 102 ± 4.9% | 101.34 ± 0.059% | 111.1 ± 1.1% | 103 ± 3.9% | 110 ± 2.4% | 107 ± 2.4% | 107 ± 7.4% | 103.7 ± 0.61%
C[C@]12CC[C@H]3[C@@H](CC[C@@]45O[C@@H]4C(O)=C(C#N)C[C@]35C)[C@@H]1CC[C@@H]2O [Trilostane] | 104 ± 4.1% | 94 ± 6% | 93.7 ± 0.94% | 101 ± 2.1% | 98.3 ± 5.8% | 99.2 ± 5% | 102 ± 1.8% | 106.6 ± 0.25% | 106.2 ± 0.28% | 101 ± 2.7% | 102.8 ± 0.34% | 100 ± 1.9%
CCOc1cc2ncc(C#N)c(Nc3ccc(OCc4ccccn4)c(Cl)c3)c2cc1NC(=O)/C=C/CN(C)C [Neratinib] | 110 ± 1.2% | 103 ± 1.1% | 117.5 ± 0.44% | 103.9 ± 0.36% | 88.058 ± 0.084% | 50.9 ± 0.56% | 101.7 ± 0.83% | 99.12 ± 0.5% | 100.4 ± 0.55% | 96 ± 2.1% | 67.12 ± 0.38% | 41.08 ± 0.095%
Cc1nc(N)sc1-c1ccnc(Nc2ccc(N3CCOCC3)cc2)n1 [CYC116] | 90.7 ± 2.7% | 102 ± 4.6% | 113.07 ± 0.029% | 100.4 ± 0.47% | 93.08 ± 0.77% | 50.55 ± 0.13% | 91.6 ± 5.4% | 94.51 ± 0.42% | 101.6 ± 0.83% | 95.1 ± 4.3% | 72 ± 3.4% | 28.3 ± 0.44%
CN1CC2c3ccccc3Oc3ccc(Cl)cc3C2C1 (stereo not drawn) [Asenapine maleate] | 110 ± 1.5% | 105.4 ± 0.74% | 106.4 ± 0.12% | 105 ± 5.3% | 110 ± 3.4% | 89.34 ± 0.58% | 110 ± 0.8% | 113 ± 3.3% | 110.6 ± 0.71% | 112 ± 5% | 103 ± 3.5% | 88.47 ± 0.57%
Nc1nc(Nc2ccc(S(N)(=O)=O)cc2)nn1C(=O)c1c(F)cccc1F | 107 ± 1.5% | 102.5 ± 0.3% | 107 ± 1.8% | 104 ± 1.3% | 97 ± 1.4% | 49.9 ± 5.8% | 98.71 ± 0.9% | 105 ± 2.8% | 106.4 ± 0.39% | 110 ± 4.5% | 93.5 ± 4.2% | 40.01 ± 0.12%
CC(C)(Cc1ccc2ccccc2c1)NC[C@@H](O)COc1cccc(Cl)c1C#N [NPS-2143] | 83.2 ± 5.7% | 93.6 ± 6.1% | 100 ± 2.8% | 97.6 ± 1.3% | 79.52 ± 0.42% | 1 ± 0.14% | 111 ± 4.1% | 102 ± 2.2% | 107 ± 1.8% | 114 ± 2.6% | 106.7 ± 0.6% | 1.29 ± 0.19%
OCCn1cc(-c2ccc3c(c2)CC/C3=N\O)c(-c2ccncc2)n1 [GDC-0879] | 101.5 ± 0.2% | 102 ± 1.7% | 107 ± 2.4% | 102 ± 2.6% | 108 ± 1.7% | 92.1 ± 2% | 101.6 ± 0.87% | 97.76 ± 0.82% | 98.9 ± 1.5% | 99.06 ± 0.76% | 96.15 ± 0.42% | 100.41 ± 0.061%
Cc1cc(Nc2cc(N3CCN(C)CC3)nc(/C=C/c3ccccc3)n2)n[nH]1 [ENMD-2076] | 112 ± 2.8% | 98.5 ± 1.7% | 103.4 ± 0.19% | 98.213 ± 0.069% | 81.1 ± 2.8% | 34.56 ± 0.15% | 100.4 ± 0.78% | 100.9 ± 0.97% | 104 ± 1.5% | 102 ± 2.1% | 73 ± 2.3% | 12.7 ± 0.4%
CCCCCOC(=O)Nc1nc(=O)n([C@@H]2O[C@H](C)[C@@H](O)[C@H]2O)cc1F [Capecitabine (Xeloda)] | 108.6 ± 0.75% | 112.3 ± 1.1% | 110 ± 2.9% | 106 ± 1.7% | 110.4 ± 0.14% | 100.35 ± 0.077% | 103 ± 1.9% | 99.6 ± 1.4% | 101.3 ± 0.12% | 99.27 ± 0.86% | 99.79 ± 0.64% | 100 ± 1.3%
COc1cc2c(Oc3ccc4[nH]c(C)cc4c3F)ncnc2cc1OCCCN1CCCC1 [Cediranib (AZD2171)] | 104 ± 3.6% | 117 ± 2.7% | 121 ± 5.1% | 102 ± 2.1% | 84.2 ± 1.6% | 10.6 ± 4.9% | 81.9 ± 2.5% | 89.4 ± 1.5% | 102 ± 1.9% | 97.36 ± 0.37% | 62.3 ± 2.6% | 1.75 ± 0.065%
CC(C)Cc1ccc(C(C)C(=O)O)cc1 (stereo not drawn) [Ibuprofen] | 102.6 ± 0.15% | 109 ± 5.4% | 114 ± 1.2% | 112.4 ± 0.85% | 106 ± 1.3% | 104 ± 3.3% | 105.8 ± 0.48% | 99.2 ± 0.35% | 101 ± 0.81% | 99.61 ± 0.82% | 98.25 ± 0.82% | 98.82 ± 0.41%
Nc1cccc2c1CN(C1CCC(=O)NC1=O)C2=O (stereo not drawn) [Lenalidomide] | 107 ± 2.9% | 115 ± 1.9% | 113 ± 3% | 112 ± 2.1% | 109 ± 4.8% | 98.472 ± 0.068% | 101 ± 1.6% | 98.8 ± 1% | 100 ± 1.1% | 100.4 ± 0.81% | 100.5 ± 0.13% | 98.62 ± 0.12%
Nc1cc(C(Cl)=C(Cl)Cl)c(S(N)(=O)=O)cc1S(N)(=O)=O [Clorsulon] | 109 ± 2.7% | 111.6 ± 0.7% | 107 ± 1.5% | 101 ± 2.9% | 98.4 ± 1.1% | 106 ± 1.2% | 81.5 ± 3.3% | 86.2 ± 4% | 73.8 ± 6.7% | 88.2 ± 12% | 91.8 ± 5.8% | 79.6 ± 10%
